This is an account of results in US6342503B1, “1N-alkyl-n-arylpyrimidinamines and derivatives thereof” (DuPont Pharmaceuticals Company, priority 1993, dated 2002).

Each structure is given as a SMILES string. Counter-ions that a name gives are not always drawn.

Data set [1] deals with T1, CRF receptor (Rattus norvegicus, UniProt P35353).
T1 construct: 100 μl of membrane suspension as prepared above to give a total reaction volume of 300 μl; from tissue; host or cells: rat cerebral cortex membrane homogenate
T1 sequence (P35353 24-415): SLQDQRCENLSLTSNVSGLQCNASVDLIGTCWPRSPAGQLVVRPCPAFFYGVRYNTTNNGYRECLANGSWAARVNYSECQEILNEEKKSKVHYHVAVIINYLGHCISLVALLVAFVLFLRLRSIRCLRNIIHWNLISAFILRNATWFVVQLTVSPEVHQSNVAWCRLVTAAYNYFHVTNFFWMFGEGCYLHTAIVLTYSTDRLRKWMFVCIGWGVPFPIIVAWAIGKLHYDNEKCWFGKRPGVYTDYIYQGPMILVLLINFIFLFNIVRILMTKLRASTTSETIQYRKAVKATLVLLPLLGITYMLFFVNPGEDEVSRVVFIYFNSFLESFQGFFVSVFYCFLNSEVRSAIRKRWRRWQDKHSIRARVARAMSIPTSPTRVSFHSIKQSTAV
In words: In vitro CRF receptor binding assay (competition with [125I] ovine CRF, rat cortex membranes). The conditions noted are these: read-out: Inhibition Ki.

On to `COc1ccc(Nc2nc(C)cc(C)n2)c(Br)c1` [compound 204], for which the melting point (as a rule, the temperature, or range, at which the solid turns liquid) lay in the range of 118 to 119 °C. Besides, the Ki (as a rule, the dissociation constant of the complex between target and ligand, obtained from inhibition or displacement) in data set [1] fell in the range of 2000 to 10000 nM.

In turn, `CCN(c1nc(C)cc(C)n1)c1ccc(N(C)C)cc1SC` [compound 191, N-(4-(N,N-dimethylamino)-2-methylthiophenyl)-N-ethyl-4,6-dimethyl-2-pyrimidinamine] returned a melting point of 119 to 120 °C. Moreover, in data set [1], the Ki was less than 500 nM.

`CCOc1cc(Br)c(Nc2nc(C)cc(C)n2)c(Br)c1` [compound 228]: the melting point fell in the range of 165 to 167 °C. The Ki in data set [1] lay in the range of 501 to 2000 nM.

The compound `COc1cc(Cl)c(Nc2nc(C)cc(C)n2)c(OC)c1` [compound 145] displayed a melting point of 170 to 173 °C. Besides, in data set [1], the inhibitory constant (Ki) fell in the range of 2000 to 10000 nM.

The compound `CCN(c1nc(C)cc(C(=O)NC2CCCCC2)n1)c1ccc(C(C)C)cc1Br` [compound 62] registered a melting point of 115 °C. Besides, the Ki in data set [1] fell in the range of 501 to 2000 nM. The like results for `CCN(c1nc(C)cc(N2CCCC2)n1)c1ccc(C(C)C)cc1Br` [compound 192] were, in that order, 106 to 107 °C and less than 500 nM. The like results for `CCN(c1nc(C)cc(N2CCN(C=O)CC2)n1)c1ccc(C(C)C)cc1Br` [compound 25] were, in that order, 61 to 63 °C and less than 500 nM. The compound `CCN(c1nc(C)cc(C(=O)c2ccco2)n1)c1ccc(C(C)C)cc1Br` [compound 288] returned a melting point of 136 to 138 °C. Moreover, in data set [1], the Ki is less than 500 nM. Take `CCN(c1nc(C)cc(C)n1)c1ccc(Br)cc1SC` [compound 180, N-(4-bromo-2-methylthiophenyl)-N-ethyl-4,6-dimethyl-2-pyrimidinamine]: the melting point was in the range of 91 to 93 °C. Moreover, the Ki in data set [1] is less than 500 nM.

`CCCCN(c1nc(C)cc(C)n1)c1ccc(C(C)C)cc1Br` [compound 197] had a melting point of 159 to 160 °C. Further, the Ki in data set [1] is 501 to 2000 nM. With `CCN(c1nc(C)cc(C(O)(c2ccc(OC)cc2)c2ccc(OC)cc2)n1)c1ccc(C(C)C)cc1Br` [compound 289], the melting point was 63 to 65 °C. Also, in data set [1], the Ki is less than 500 nM. In the case of `CCCN(c1nc(C)cc(C)n1)c1ccc(C(C)C)cc1Br` [compound 196], the melting point lay within 150 to 151 °C. Moreover, the Ki in data set [1] is less than 500 nM. As to `Cc1ccc(N(C)c2nc(C)cc(N3CCOCC3)n2)c(Br)c1` [compound 6], the melting point fell in the range of 40 to 42 °C. Further, the inhibition constant (Ki) in data set [1] lay within 501 to 2000 nM. As to `COc1cc(Br)c(Nc2nc(C)cc(C)n2)c(OC)c1` [compound 203], the melting point is 177 to 179 °C. Also, the Ki in data set [1] lay within 501 to 2000 nM. In turn, `CCN(c1nc(C)cc(C)n1)c1ccc(N(C)C(C)=O)cc1SC` [compound 183, N-(2-methylthio-4-(N-acetyl-N-methylamino)phenyl)-N-ethyl-4,6-dimethyl-2-pyrimidinamine] came in with a melting point of 158 to 160 °C. Besides, in data set [1], the Ki fell in the range of 2000 to 10000 nM. For the compound `CCN(c1nc(C)nc(N(C)C)n1)c1ccc(C(C)C)cc1Br` [compound 240], the melting point was 72 to 75 °C. Also, the Ki in data set [1] is less than 500 nM.

With `CCN(c1nc(C)cc(C(=O)c2cc[nH]n2)n1)c1ccc(C(C)C)cc1Br` [compound 286], the melting point lay within 171 to 173 °C. The Ki in data set [1] is less than 500 nM. The like results for `CCN(c1nc(C)cc(C)n1)c1ccc(CCO)cc1Br` [compound 64, N-(2-Bromo-4-(2-hydroxyethyl)phenyl)-N-ethyl-4,6-dimethyl-2-pyrimidinamine] were, in that order, 58 to 60 °C and 2000 to 10000 nM.

In turn, `CCN(c1nc(C)cc(C)n1)c1cc(Br)c(OC)cc1OC` [compound 253, N-(3-Bromo-4,6-dimethoxyphenyl)-N-ethyl-4,6-dimethyl-2-pyrimidinamine] gave a melting point of 143 to 145 °C. Further, the Ki in data set [1] was in the range of 501 to 2000 nM. Take `CCN(c1nc(C)nc(C(C#N)c2ccccc2)n1)c1c(Br)cc(OC)cc1OC` (stereo not drawn) [compound 247]: the melting point fell in the range of 50 to 52 °C. For the same compound, the Ki in data set [1] is less than 500 nM. The like results for `CCc1ccc(N(c2nc(C)cc(C)n2)C(C)C)c(SC)c1` [compound 181, N-(4-ethyl-2-methylthiophenyl)-N-(1-methylethyl)4,6-dimethyl-2-pyrimidinamine] were, in that order, 85 to 87 °C and less than 500 nM. The like results for `CCN(c1nc(C)cc(C)n1)c1c(Br)cc(OC)cc1Br` [compound 226] were, in that order, 101 to 103 °C and less than 500 nM. `CCOc1cc(Br)c(N(CC)c2nc(C)cc(C)n2)c(Br)c1` [compound 224, N-(2,6-Dibromo-4-(ethoxy)phenyl)-N-ethyl-4,6-dimethyl-2-pyrimidinamine] yielded a melting point of 107 to 108 °C. Besides, the Ki in data set [1] is less than 500 nM. In turn, `Cc1cc(N2CCSCC2)nc(Nc2c(Br)cc(C(C)C)cc2Br)n1` [compound 166, N-(2,6-dibromo-4-(1-methylethyl)phenyl)4-thiomorpholino-6-methyl-2-pyrimidinamine] displayed a melting point of 194 to 195 °C. Besides, the Ki in data set [1] is less than 500 nM. On the same counts, the results for `CCN(c1nc(C)cc(C(=O)c2cccnc2)n1)c1ccc(C(C)C)cc1Br` [compound 284] are 165 to 167 °C and less than 500 nM. In turn, `CCN(c1nc(C)cc(N2CC[S+]([O-])CC2)n1)c1ccc(C(C)C)cc1I` [compound 56, N-ethyl-N-(2-iodo4-(1-methylethyl)phenyl)4-thiomorpholino-6-methyl-2-pyrimidinamine, S-oxide] had a melting point of 52 to 55 °C. The Ki in data set [1] was less than 500 nM. `CCN(c1nc(C)cc(C)n1)c1ccc(C(C)C)cc1SC` [compound 168, N-(2-methylthio-4-(1-methylethyl)phenyl)-N-ethyl-4,6-dimethyl-2-pyrimidinamine] showed a melting point of 64 to 66 °C. Also, the inhibitory constant (Ki) in data set [1] was less than 500 nM. The like results for `CCC(=O)c1ccc(N(CC)c2nc(C)cc(C)n2)c(SC)c1` [compound 188, N-(4-propionyl-2-methylthiophenyl)-N-ethyl-4,6-dimethyl-2-pyrimidinamine] were, in that order, 139 to 141 °C and less than 500 nM.

Compound `COc1cc(OC)c(N(C)c2nc(C)cc(C)n2)c(OC)c1` [compound 14] displayed a melting point of 145 to 146 °C. The Ki in data set [1] lay in the range of 501 to 2000 nM. The like results for `CCc1cc(N2CCCCC2)nc(N(C)c2ccc(C(C)C)cc2Br)n1` [compound 194] were, in that order, 211 to 212 °C and less than 500 nM. Regarding `CCN(c1nc(C)cc(C)n1)c1ccc(C(C)C)cc1S(C)(=O)=O` [compound 174, N-(2-methylsulfonyl-4-(1-methylethyl)phenyl)-N-ethyl-4,6-dimethyl-2-pyrimidinamine], the melting point was 174 to 176 °C. Besides, the Ki in data set [1] was less than 500 nM.

Turning to `CCN(c1nc(C)cc(C)n1)c1ccc(C#N)cc1SC` [compound 186, N-(4-cyano-2-methylthiophenyl)-N-ethyl-4,6-dimethyl-2-pyrimidinamine], the melting point lay within 99 to 100 °C. In addition, the Ki in data set [1] was less than 500 nM. In the case of `CCN(c1nc(C)cc(C)n1)c1c(Cl)cc(OC)cc1OC` [compound 141], the melting point lay in the range of 99 to 102 °C. Also, the Ki in data set [1] was less than 500 nM. The like results for `CCN(c1nc(C)cc(C(=O)c2ccc(OC)cc2)n1)c1ccc(C(C)C)cc1Br` [compound 287] were, in that order, 104 to 106 °C and 501 to 2000 nM.

`CCN(c1nc(C)cc(C(=O)N2CCN(c3ncccn3)CC2)n1)c1ccc(C(C)C)cc1Br` [compound 273] registered a melting point of 114 to 116 °C. Further, the Ki in data set [1] was 501 to 2000 nM. As for `CCN(c1nc(C)cc(C)n1)c1ccc(NC)cc1SC` [compound 190, N-(4-(N-methylamino)-2-methylthiophenyl)-N-ethyl-4,6-dimethyl-2-pyrimidinamine], the melting point was in the range of 141 to 142 °C. Also, in data set [1], the inhibitory constant (Ki) is less than 500 nM. On the same counts, the results for `COc1cc(Br)c(Nc2nc(C)cc(C)n2)c(Br)c1` [compound 223] are 175 to 177 °C and 501 to 2000 nM.

On to `CCN(c1nc(C)cc(C)n1)c1ccc(C(C)=O)cc1SC` [compound 187, N-(4-acetyl-2-methylthiophenyl)-N-ethyl-4,6-dimethyl-2-pyrimidinamine], for which the melting point was in the range of 125 to 126 °C. Besides, the Ki in data set [1] was less than 500 nM. The like results for `CCN(c1nc(C)cc(C(O)(c2ccccc2)c2ccccc2)n1)c1ccc(C(C)C)cc1Br` [compound 293] were, in that order, 56 to 58 °C and less than 500 nM. On the same counts, the results for `CCN(c1nc(C)cc(C(=O)N2CCCCC2)n1)c1ccc(C(C)C)cc1Br` [compound 60] are 107 to 108 °C and 501 to 2000 nM. Compound `CCc1ccc(N(CC)c2nc(C)cc(C)n2)c(SC)c1` (as salt: hydrochloride) [compound 182, N-(4-ethyl-2-methylthiophenyl)-N-ethyl-4,6-dimethyl-2-pyrimidinamine] showed a melting point of 140 to 141 °C. Still for that read-out and setting: under `CCCCc1ccc(N(CC)c2nc(C)cc(C)n2)c(Br)c1` (as salt: hydrochloride) [compound 19] stands 124 to 126 °C; under `COc1ccc(N(C)c2nc(C)cc(C)n2)c(OC)c1` (as salt: hydrochloride) [compound 2], 112 to 113 °C; under `CCN(c1nc(C)cc(C(=O)c2c[nH]c3ccccc23)n1)c1ccc(C(C)C)cc1Br` (as salt: HCl) [compound 283], 105 to 107 °C.
